One series deals with RAW264.7. The experiment in a line: Induction of phagocytosis in mouse RAW264.7 cells at 5 uM incubated for 12 hrs by flow cytometric analysis. Format: functional, cell-based. (In general: Flow cytometry measures light scatter and fluorescence of single cells or particles in a stream.)
Series [1] has as its target T1, CYP1A1 (Homo sapiens, UniProt P04798).
T1 sequence (P04798 whole entry): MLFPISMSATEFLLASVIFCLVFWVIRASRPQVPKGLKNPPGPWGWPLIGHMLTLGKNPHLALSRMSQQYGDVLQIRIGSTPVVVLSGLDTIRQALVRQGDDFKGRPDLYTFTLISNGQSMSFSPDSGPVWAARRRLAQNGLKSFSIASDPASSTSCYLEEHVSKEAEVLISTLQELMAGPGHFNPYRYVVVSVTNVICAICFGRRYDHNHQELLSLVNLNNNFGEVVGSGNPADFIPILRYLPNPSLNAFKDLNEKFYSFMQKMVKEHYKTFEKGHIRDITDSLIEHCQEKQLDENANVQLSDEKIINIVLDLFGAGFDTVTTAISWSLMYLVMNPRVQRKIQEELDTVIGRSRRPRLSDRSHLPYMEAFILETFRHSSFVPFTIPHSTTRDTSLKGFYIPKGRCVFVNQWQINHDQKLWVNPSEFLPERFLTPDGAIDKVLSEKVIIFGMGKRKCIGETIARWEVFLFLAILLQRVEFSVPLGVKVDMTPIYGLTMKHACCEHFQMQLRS
As to the kind of experiment: Inhibition of CYP1A1 in human Caco-2 cells at 500 nM incubated for 12 hrs by EROD assay relative to control. Format: cell-based.

In series [2] the target is T2, CYP1A1 (Mus musculus, UniProt P00184).
T2 sequence (P00184 whole entry): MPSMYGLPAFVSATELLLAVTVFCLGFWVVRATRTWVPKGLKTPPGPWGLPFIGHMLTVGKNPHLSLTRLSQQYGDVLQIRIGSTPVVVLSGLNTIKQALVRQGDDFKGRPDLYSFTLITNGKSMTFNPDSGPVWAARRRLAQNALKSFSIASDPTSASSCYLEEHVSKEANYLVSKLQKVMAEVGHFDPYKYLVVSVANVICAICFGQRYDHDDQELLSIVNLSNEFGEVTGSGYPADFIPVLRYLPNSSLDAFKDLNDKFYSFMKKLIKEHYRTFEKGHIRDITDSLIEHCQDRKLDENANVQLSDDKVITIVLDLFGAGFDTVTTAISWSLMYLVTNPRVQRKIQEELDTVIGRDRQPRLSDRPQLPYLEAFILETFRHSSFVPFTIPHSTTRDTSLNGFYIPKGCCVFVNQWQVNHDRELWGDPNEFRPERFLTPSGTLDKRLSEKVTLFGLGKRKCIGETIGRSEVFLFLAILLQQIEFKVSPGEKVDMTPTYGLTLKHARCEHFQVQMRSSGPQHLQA
As to the kind of experiment: Inhibition of CYP1A1 in mouse RAW264.7 cells at 500 nM incubated for 12 hrs by EROD assay relative to control. Type of series: cell-based.

Activity calls are given as the source filed them. The rule behind the calls is not given here.

Turning to `C#Cc1ccccc1/C=C/C(=O)c1ccc2c(c1)n(C)c(=O)n2C`, in the series with RAW264.7, the result was Active. Besides, the inhibition at 12 h, 0.5 µM on CYP1A1 [1] and on CYP1A1 [2] was less than 10% in each case.
Consider `Cn1cc(/C=C/C(=O)c2ccc3c(c2)n(C)c(=O)n3C)c2ccccc21`, for which the result with RAW264.7 was Active.

As a reminder, the inhibition is the change of the read-out against control, counted positive when it falls. Lower therefore signals little suppression.
